Results on 16 compounds are retold here after EP4635974A1, “COSMETIC COMPOSITION FOR SKIN IMPROVEMENT” (LG Household & Health Care Ltd., priority 2022, dated 2024).

Where a SMILES comes first, the peptide text is derived from it. Where no end group is shown, it is not given here. The star is where a group is joined. Palmitoyl = CCCCCCCCCCCCCCCC(=O)*

Experiment [1] addresses T1, Elastase derived from human leukocytes (Homo sapiens, UniProt P08246).
T1 construct: Elastase derived from human leukocytes was used; from tissue; host or cells: human leukocytes
T1 sequence (P08246 30-267): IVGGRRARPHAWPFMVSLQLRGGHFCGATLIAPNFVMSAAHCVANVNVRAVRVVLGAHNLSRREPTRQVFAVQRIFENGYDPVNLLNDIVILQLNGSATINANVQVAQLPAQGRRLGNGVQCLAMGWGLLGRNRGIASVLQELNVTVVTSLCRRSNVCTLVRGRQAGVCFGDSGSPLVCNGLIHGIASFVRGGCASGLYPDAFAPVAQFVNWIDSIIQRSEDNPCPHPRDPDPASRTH
The experiment in a line: Inhibition of elastase activity (synthetic substrate, absorbance at 405 nm). The class given is biochemical. The conditions noted are these: for Inhibition of elastase activity (%): 100 µg/mL. As to the method:
(§1) In order to investigate the effect of peptide sequence variation, the activity of […] was tested as in Test Example 1 after sequence variation. Elastase derived from human leukocytes was used, and the synthetic substrate MeOSuc-Ala-Ala-Pro-Val-pNA was used as the substrate of elastase. A 100 mM Tris (pH 7.5) solution was used as a buffer solution. The elastase was diluted finally to 0.2 mU using the buffer solution. In addition, the synthetic substrate of elastase was prepared into a 100 mM solution using DMSO, and then diluted to a final concentration of 0.5 mM using a buffer solution. As a positive control group, quercetin known to inhibit elastase was used at a concentration of 10 ppm. The candidates of elastase inhibition were tested at final concentrations of 10 and 20 ppm. Reaction was conducted in a 96-well plate at room temperature for 20 minutes. The inhibition of the enzyme activity was determined by measuring absorbance at 405 nm using a spectrophotometer with 1-minute intervals, and calculating the slope of the absorbance versus time.
(§2) The peptide sequences of SEQ ID NOS 14 to 16 were treated at 100 µg/mL, and the peptide sequence RKSLFVD was used as a control peptide sequence. The inhibition of collagenase activity (%) and the inhibition of elastase activity (%) were calculated from the relative enzyme activity versus the control group, and the result is given in Table 4.
(§3) In order to investigate the effect of variation of the N-terminal or C-terminal of the peptide sequence, the activity of collagenase and elastase was tested after sequence variation as in Test Example 1.

In experiment [2] the test system is acetylcholine release at the neuromuscular synapses. The following applies: cited from earlier work.
Experiment [3] deals with Collagenase derived from the mouse pancreas. The experiment in a line: Inhibition of collagenase activity (synthetic substrate, absorbance at 345 nm). Type of experiment: biochemical. The conditions noted are these: 100 µg/mL. As to the method:
Collagenase derived from the mouse pancreas was used, and the synthetic substrate N-(3-[2-furyl]acryloyl)-Leu-Gly-Pro-Ala was used as the substrate of collagenase. A buffer solution in which 50 mM tricine, 10 mM CaCl2·H2O and 400 mM NaCl were dissolved (pH 7.5) was used. The synthetic substrate was dissolved in the buffer solution to a concentration of 10 mM and finally diluted to 75 µM. The collagenase was dissolved to a concentration of 1 unit/mL using cold triply distilled water at 4 °C and then finally diluted to 0.05 unit/mL using a buffer solution. The candidates of collagenase inhibition were tested at final concentrations of 25 and 50 ppm. As a positive control group, epigallocatechin gallate (EGCG) known to have the effect of inhibiting collagenase was used at a final concentration of 50 ppm. Reaction was conducted in a 96-well plate at room temperature for 10 minutes. The inhibition of the enzyme activity was determined by measuring absorbance at 345 nm using a spectrophotometer with 1-minute intervals, and calculating the maximum slope of the absorbance versus time.
as §1, §2, §3

[4] abbreviates: Table 5, N-terminal or C-terminal variation.
[5] abbreviates: Table 4, relative enzyme activity versus the control group.

Consider `CC(=O)N[C@@H](CCCCN)C(=O)NCC(=O)N[C@@H](CCCNC(=N)N)C(=O)N[C@@H](CO)C(=O)N[C@@H](CO)C(=O)N[C@@H](CS)C(=O)N[C@@H](Cc1ccccc1)C(=O)N[C@H](C(=O)N[C@@H](CC(=O)O)C(=O)N[C@@H](CS)C(=O)O)C(C)C` (Ac-KGRSSCFVDC-OH), for which testing at 100 µg/mL in experiment [1] (setting [4]) gave an inhibition of 71%.

`CCCCCCCCCCCCCCCC(=O)N[C@@H](CCCCN)C(=O)NCC(=O)N[C@@H](CCCNC(=N)N)C(=O)N[C@@H](CO)C(=O)N[C@@H](CO)C(=O)N[C@@H](CS)C(=O)N[C@@H](Cc1ccccc1)C(=O)N[C@H](C(=O)N[C@@H](CC(=O)O)C(=O)N[C@@H](CS)C(=O)O)C(C)C` (Palmitoyl-KGRSSCFVDC-OH) yielded an inhibition at 100 µg/mL in experiment [1] (setting [4]) of 74.1%.

In turn, `CC(C)[C@H](NC(=O)[C@H](Cc1ccccc1)NC(=O)[C@H](CS)NC(=O)[C@H](CO)NC(=O)[C@H](CO)NC(=O)[C@H](CCCNC(=N)N)NC(=O)CNC(=O)[C@@H](N)CCCCN)C(=O)N[C@@H](CC(=O)O)C(=O)N[C@@H](CS)C(N)=O` [C-amine-substituted peptide of SEQ ID] (H-KGRSSCFVDC-NH2) gave an inhibition at 100 µg/mL in experiment [1] (setting [4]) of 52.6%.

As to “Ac-Glu-Glu-Met-Gln-Arg-Arg-NH2 (Ac-EEMQRR-NH2) [Argireline]”, in experiment [2], the “times weaker than Botox” value is 5000 times.

As for CDVFCSSRGK [SEQ ID NO 14], in experiment [3] (setting [5]), the “Inhibition of collagenase activity (%)” value turned out to be 24.77%. Moreover, the “Inhibition of elastase activity (%)” value in experiment [1] (setting [5]) amounted to 68.5%.

For DVFCSSRGK [SEQ ID NO 15, DVFCSSRGK], 100 µg/mL produced 65.5% inhibition in experiment [1] (setting [5]).

The compound FCSSRGK [SEQ ID NO 16, FCSSRGK] displayed an inhibition at 100 µg/mL in experiment [1] (setting [5]) of 51.5%.

Compound KGRSSCF [SEQ ID NO 3, KGRSSCF] gave an inhibition at 100 µg/mL in experiment [1] (setting [5]) of 57.8%.

Consider KGRSSCFDC [SEQ ID NO 11], for which the “Inhibition of collagenase activity (%)” value in experiment [3] (Table 3) stood at 11.82%.

For the compound KGRSSCFVC [SEQ ID NO 12], the “Inhibition of collagenase activity (%)” value in experiment [3] (Table 3) worked out at 13.97%.

KGRSSCFVD [SEQ ID NO 2, KGRSSCFVD] yielded an inhibition at 100 µg/mL in experiment [1] (setting [5]) of 70.9%.

Turning to KGRSSCFVDC [SEQ ID NO 1], the “Inhibition of collagenase activity (%)” value in experiment [3] (Table 3) turned out to be 22.91%; in experiment [3] (setting [5]), 21.57%; in experiment [3] (setting [4]) it was 22.6%. The “Inhibition of elastase activity (%)” value in experiment [1] (setting [5]) worked out at 72.1%; in experiment [1] (setting [4]) it was 68.3%.

Consider KGSSCFVDC [SEQ ID NO 10], for which the “Inhibition of collagenase activity (%)” value in experiment [3] (Table 3) came out at 15.24%.

In the case of “RKSLFVD [Control peptide sequence, RKSLFVD, reference compound]”, the inhibition at 100 µg/mL is 5.2% in experiment [1] (setting [5]) and 1.3% in experiment [1] (setting [4]).

Turning to RSSCFVDC [SEQ ID NO 5], the “Inhibition of collagenase activity (%)” value in experiment [3] (Table 3) is on record as 12.23%.

With SSCFVDC [SEQ ID NO 6], in experiment [3] (Table 3), the “Inhibition of collagenase activity (%)” value is reported as 17.97%.
